Four compounds from EP4556465A1, “NOVEL BICYCLIC PD-L1 INHIBITORS, PREPARATION METHODS THEREFOR AND MEDICINAL USES THEREOF” (priority 2022, dated 2024) can be followed below.

Data set [1] addresses T1, hPD-1/hPD-L1 (Homo sapiens, UniProt Q9NZQ7).
T1 construct: purchased CISBIO
The experiment in a line: PD-1/PD-L1 binding assay kit (CISBIO), HTRF assay of PD-1/PD-L1 protein-protein interaction. The following applies: for inhibitory activity of PD-1/PD-L1 protein-protein interaction compared with BMS-202: HTRF, comparison with BMS-202. The method, then:
Experimental objective: the activity of the compounds of formula (I) to inhibit the PD-1/PD-L1 interaction was tested by using a PD-1/PD-L1 binding assay kit (CISBIO).
Experimental principle: HTRF (Homogeneous Time-Resolved Fluorescence) is a technique used to detect substances to be tested in pure liquid phase systems. It primarily utilizes energy transfer of two fluorescent groups, which are divided into an energy donor europium (Eu^+) and an energy acceptor. When the donor is externally excited (e.g., a flash lamp or laser), the energy can be resonantly transferred to the acceptor if the donor is close enough to the acceptor, and the acceptor is excited at a specific wavelength. By using the HTRF technology, the assay enables simple and rapid characterization of compounds and antibody blockers in a high-throughput format. By using anti-Tag1 labeled with Eu^+ (Europium) (the HTRF energy donor) and anti-Tag2 labeled with XL665 (the HTRF energy acceptor), the interaction between PD-L1 and PD-1 can be detected. PD-L1 protein and PD-1 protein are labeled with Tag1 and Tag2, respectively, and Eu^+ and XL665 bind to PD-L1 and PD-1, respectively, through antibodies to form complexes. […] This specific signal is directly proportional to the degree of PD1/PD-L1 interaction.
Experimental materials: kit: PD-1/PD-L1 binding assay kits purchased from CISBIO; and 96-well plate: purchased from CISBIO.
Test instrument: Perkin Elmer, model: EnVision.
Test compounds: the compounds in formula (I).
Experimental procedure: PD-1/PD-L1 binding assay kits were used. […] The plates were sealed by using microplate sealers, centrifuging was performed at 1000 rpm for 1 min, and incubation was performed at room temperature for 15 min. The Anti-Tag-Eu^3+ and Anti-tag-XL665 which were diluted with Buffer were then mixed in equal volumes, then 10 µL of the mixed solution was added to each well, the sealed plates were centrifuged at 1000 rpm for 1 min, and incubation was performed at room temperature for 2 h. […] IC50 of the compounds was calculated by using Graphpad.
A general note: Time-resolved FRET reads energy transfer from a long-lived donor to a nearby acceptor.

Data set [2] is described as follows: Acute toxicity test, single oral gavage. Format: in vivo. The following applies: both sexes, rat, in vivo, po, SD rats, read-out: maximum tolerated dose (MTD). The method, then:
(§1) • Animal species and number: SD rats; 6 rats in each group (half male and half female); Mode of administration: oral gavage; […]; • Administration frequency: administration once.
(§2) Side-cage observation on the day of administration (D1): frequency and time of observation: side-cage observation of acute toxicity reactions was performed for 4 h after administration of animals in each group, and detailed clinical observations were performed on animals with apparent abnormal manifestations. Mortality, morbidity, respiration, secretion, feces, and diet, water drinking, etc. were observed, and changes in body weight of rats during administration were recorded. Detailed clinical observations include, but are not limited to, behavioral activities, skin, hair, eyes, ears, noses, abdomens, external genitalia, anuses, limbs, feet, and breathing. The animals in each group were euthanized at the end of the observation period, and all animals were dissected and gross observed.

Data set [3] concerns SD rats. The experiment in a line: Acute toxicity test, single oral gavage. To be noted: 500 mg/kg, 1000 mg/kg and 2000 mg/kg. It is filed as in vivo. The method, then:
as §1, §2

For data set [4], the system named is breast cancer tumor cells 4T1. The following applies: 10 mg/kg, i.g., QD×21 days; for Tumor inhibition rate / tumor-inhibiting efficacy: 4T1 subcutaneous tumor. As for the experimental part: Subsequently, each group of animals was dosed, and the day of first administration was defined as test day 1; • Administration frequency: once a day; • General state observations: observation time and frequency: once a day; observation indicators or content: including, but not limited to, local administration of the animals, appearance signs, general behavioral activity, mental status, death, and other abnormal manifestations. The animals were euthanized at the end of the test. • Calculation of tumor volume: V=1/2×long diameter×short diameter^2 (mm^3).

In data set [5] the test system is SD rats. The experiment in a line: Safety test after repeated administration for 14 days. The following applies: oral gavage 300 mg/kg once a day for 14 days. It is filed as in vivo. The method, then:
• Animal species and number: SD rats; 6 rats in each group (half male and half female); Mode of administration: oral gavage; […]; • Administration frequency: administration once a day for 14 days.
as §2, with “Side-cage” for “Side-cage observation on the day of administration (D1): frequency and time of observation: side-cage”, “administration,” for “administration of animals in each group,”, “manifestations. General clinical observations included observation twice a day during the test (observation once in the morning and observation once in the afternoon).” for “manifestations.”, “administration,” for “the observation period,”

The structures appear in SMILES notation.

T1 sequence (Q9NZQ7 19-238 limits assumed): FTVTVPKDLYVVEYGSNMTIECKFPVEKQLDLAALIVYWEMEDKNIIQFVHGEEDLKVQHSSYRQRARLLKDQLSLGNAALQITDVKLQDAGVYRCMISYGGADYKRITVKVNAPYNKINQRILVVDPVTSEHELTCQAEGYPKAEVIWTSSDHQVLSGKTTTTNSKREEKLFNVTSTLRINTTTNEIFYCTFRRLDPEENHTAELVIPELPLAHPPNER

In general, IC50 refers to the concentration needed to halve the response being measured. The term MTD denotes the largest dose that counted as tolerated. On to `OCCN1CCc2nc(OCc3cccc(-c4ccccc4Cl)c3F)ccc2C1` [I-D-24, 2-(2-((2'-chloro-2-fluoro-[1,1'-biphenyl]-3-yl)methoxy)-7,8-dihydro-1,6-naphthyridin-6(5H)-yl)ethan-1-ol], for which the IC50 in data set [1] was in the range of 70 to 1000 nM. The maximal tolerated dose (MTD) in data set [2] is ≥ 2000 mg/kg.
With `OCCN1CCc2nc(OCc3cccc(-c4ccccc4F)c3Cl)ccc2C1` [I-D-18, 2-(2-((2-chloro-2'-fluoro-[1,1'-biphenyl]-3-yl)methoxy)-7,8-dihydro-1,6-naphthyridin-6(5H)-yl)ethan-1-ol], in data set [1], the IC50 turned out to be 16.3 nM and the “inhibitory activity of PD-1/PD-L1 protein-protein interaction compared with BMS-202” value is reported as “superior to that of the compound BMS-202”. In data set [3], the “gross observation, test sample-related changes” value is recorded as “No test sample-related changes were observed grossly” and the mortality or moribundity entry is recorded as “No mortality or moribundity was observed”. In data set [4], the “general state of tumor-bearing animals during administration (water and food intake, activity, body weight, toxicity)” value is “normal water intake and food intake, normal activity, normal body weight, and no toxicity manifestations”; the Tumor inhibition rate result is recorded as “+++ ("+++" indicates a tumor inhibition rate of more than 60%)”; the tumor-inhibiting efficacy result is listed as “significant tumor-inhibiting efficacy”. In addition, in data set [5], the “clinical observations (water intake, food intake, activity, body weight)” value (“clinical observations” for short) is “normal water intake and food intake, normal activity, and normal body weight, with no significant abnormalities”.
For the compound `Fc1ccccc1-c1cccc(COc2ccc3c(n2)CCNC3)c1Cl` [I-D-27, 2-((2-chloro-2'-fluoro-[1,1'-biphenyl]-3-yl)methoxy)-5,6,7,8-tetrahydro-1,6-naphthyridine], in data set [1], the IC50 is 10.1 nM and the “inhibitory activity of PD-1/PD-L1 protein-protein interaction compared with BMS-202” value is “superior to that of the compound BMS-202”. In data set [3], the “gross observation, test sample-related changes” value is reported as “No test sample-related changes were observed grossly” and the mortality or moribundity entry is listed as “No mortality or moribundity was observed”. Besides, the MTD in data set [2] is ≥ 2000 mg/kg. In data set [4], the “general state of tumor-bearing animals during administration (water and food intake, activity, body weight, toxicity)” value was “normal water intake and food intake, normal activity, normal body weight, and no toxicity manifestations”; the Tumor inhibition rate entry is listed as “+++ ("+++" indicates a tumor inhibition rate of more than 60%)”; the tumor-inhibiting efficacy entry is given as “significant tumor-inhibiting efficacy”. Moreover, the “clinical observations” value in data set [5] was “normal water intake and food intake, normal activity, and normal body weight, with no significant abnormalities”.
As to `O=C(O)CN1CCc2nc(OCc3cccc(-c4ccccc4F)c3Cl)ccc2C1` [I-D-26, 2-(2-((2-chloro-2'-fluoro-[1,1'-biphenyl]-3-yl)methoxy)-7,8-dihydro-1,6-naphthyridin-6(5H)-yl)acetic acid], in data set [3], the “gross observation, test sample-related changes” value is recorded as “No test sample-related changes were observed grossly” and the mortality or moribundity result is “No mortality or moribundity was observed”. Also, in data set [2], the MTD is ≥ 2000 mg/kg. Also, in data set [4], the Tumor inhibition rate result is recorded as “+++ ("+++" indicates a tumor inhibition rate of more than 60%)” and the tumor-inhibiting efficacy result is listed as “significant tumor-inhibiting efficacy”. Moreover, in data set [5], the “clinical observations” value was “normal water intake and food intake, normal activity, and normal body weight, with no significant abnormalities”.
